The subject of data set [1] is EAE mice. Kind of data set: EAE in 129Sv WT mice immunized with MOG35-55/CFA, clinical scoring. It counts as in vivo, mouse. Particulars: vs PBS. On the procedure: To investigate if the therapeutic efficacy of HSPB5 is a common feature of the whole family of small heat shock proteins, we expressed recombinant HSPB1, HSPB4, and HSPB5. We then treated EAE mice every other day starting at the peak of disease, when clinical paralysis is apparent, with an intraperitoneal (IP) administration of 10 μg of either HSPB1, HSPB4, HSPB5, or PBS as the vehicle control. […] Treating mice in vivo with HSPB1, HSPB4, or HSPB5 led to a reduction in the production of pro-inflammatory cytokines by MOG stimulated splenocytes taken from MOG immunized mice (FIG. 1c). Improvement of the clinical score was dependent on continued dosing of the sHSP. After dosing was stopped, symptoms returned, and paralysis worsened after 96 hours.
Therapeutic Peptides from HSPB5 in EAE. […] We made a series of overlapping, 15-mer peptide fragments of HSPB5 and treated mice at the peak of disease with 10 μg of each peptide every other day, using HSPB5 as a positive control and PBS as a negative control.
EAE induction and scoring. Mice were immunized subcutaneously with 100 μL of myelin oligodendrocyte glycoprotein (MOG) peptide 35-55 (2 mg/mL) and Complete Freund's adjuvant (CFA) (4 mg/mL) on Day 0. […] Mice were randomized at the peak of disease into the treatment groups where they received 10 ug/200 μL of sHSP, 1 μg/200 uL of sHSP peptide, or 200 μL of PBS (vehicle) every other day. Mice were scored every day on a clinical scoring system: 0, healthy mouse; 1, limp tail; 2, weak hindlimbs; 3, complete hindlimb paralysis; 4, weak forelimbs and paralyzed hindlimbs; 5, dead.

The subject of data set [2] is brain T cells. The data set can be described thus: Brain T cell populations at 7 d after stroke (flow cytometry), wild-type mice. It counts as in vivo, mouse. Particulars: vs PBS. On the procedure:
The T cell populations in brain were analyzed at 7 d after stroke. […] However, when we quantitatively analyzed how many cytokine molecules existed per cell, we found fewer IL-17-PE molecules per CD3^+, CD4^+ and gd-T cells in Cryab-treated mice brains compared to PBS-treated ones (FIG. 15k, l).

Data set [3] has as its system stroke in Cryab−/− mice. Kind of data set: Cerebral ischemia (middle cerebral artery occlusion) in Cryab−/− mice, lesion size by silver stain. The format is in vivo, mouse. To be noted: IP 1 h before stroke, 12 h, 24 h and daily for seven days, vs PBS treated Cryab−/−. On the procedure: To test if increased plasma Cryab after stroke was beneficial, Cryab^−/− mice were given intraperitoneal injections of recombinant Cryab protein starting 1 h before stroke onset and continuing at 12 h, 24 h and daily afterwards for seven days in total.
Induction of cerebral ischemia. We used 12 to 14-week-old, male mice weighing 25-30 g. The weights of the animals in all experimental groups were similar. We used filament occlusion model of cerebral ischemia as described. Briefly, mice were anesthetized with 2% isoflurane in a mixture of 20% oxygen and 80% air. After the surgical exposure, the left external and common carotid arteries were permanently ligated. Then, a 7-0 mm, silicon rubber-coated, reusable monofilament (Doccol Inc, 70SPRe2045) was inserted into the left common carotid artery and advanced towards the left internal carotid artery 9-10 mm after the left carotid bifurcation. The core body temperature was checked by a rectal probe and maintained at 37° C. throughout the surgery by a heating pad and lamp. The cerebral blood flow was measured by a laser Doppler flow-meter and at least 80% reduction compared to presurgical baseline values was achieved after the insertion of the filament. The flowmeter probe was placed 2 mm posterior and 5-6 mm lateral to the bregma on the skull. The reperfusion was achieved by withdrawal of the filament 30 min after the insertion. […]

Data set [4] deals with mice with EAE. Kind of data set: EAE in C57BL/6J mice (MOG35-55/CFA, pertussis toxin), neurological impairment scoring. It counts as in vivo, mouse. On the procedure: It was tested if the chaperone function of residues 73-92 of HspB5 were capable of reducing the symptoms of experimental allergic encephalomyelist (EAE), by inducing EAE in 9-week old female C57BL/6J by immunized subcutaneously with an emulsion containing 200 μg myelin oligodendrocyte glycoprotein 35-55 (MOG35-55; […] (SEQ ID NO:24)) in saline and an equal volume of complete Freund's adjuvant. Intraperitoneal injection of pertussis toxin at 0 and 48 h post-immunization results in paralysis beginning at day 12.

The test system of data set [5] is stroke in wild-type mice. The data set can be described thus: Cerebral ischemia (30 min middle cerebral artery filament occlusion) in wild-type mice, lesion size. Particulars: vs PBS. The format is in vivo, mouse. On the procedure:
Because the restoration of plasma Cryab in Cryab^−/− mice decreased the lesion size, we next investigated whether administration of Cryab into wild-type mice would have a similar effect. When Cryab was administered beginning 1 h before stroke onset and then at 12 hrs after, the lesion size at 2 d was not different between PBS and Cryab treated wild-type mice groups (FIG. 14a).
Induction of cerebral ischemia. We used 12 to 14-week-old, male mice weighing 25-30 g. The weights of the animals in all experimental groups were similar. We used filament occlusion model of cerebral ischemia as described. Briefly, mice were anesthetized with 2% isoflurane in a mixture of 20% oxygen and 80% air. After the surgical exposure, the left external and common carotid arteries were permanently ligated. Then, a 7-0 mm, silicon rubber-coated, reusable monofilament (Doccol Inc, 70SPRe2045) was inserted into the left common carotid artery and advanced towards the left internal carotid artery 9-10 mm after the left carotid bifurcation. The core body temperature was checked by a rectal probe and maintained at 37° C. throughout the surgery by a heating pad and lamp. The cerebral blood flow was measured by a laser Doppler flow-meter and at least 80% reduction compared to presurgical baseline values was achieved after the insertion of the filament. The flowmeter probe was placed 2 mm posterior and 5-6 mm lateral to the bregma on the skull. The reperfusion was achieved by withdrawal of the filament 30 min after the insertion. After the closure of the surgical wound and the mice were returned to their cages with free access to water and food.

Data set [6] deals with splenocytes stimulated with anti-CD3/anti-CD28, concanavalin-A or LPS. The data set can be described thus: Splenocyte cytokine response at 7 d after stroke, Cryab−/− mice. To be noted: Cryab treated vs PBS treated Cryab−/− mice. It counts as in vivo, mouse. On the procedure: The effects of Cryab treatment on splenocytes isolated from PBS treated wild-type and Cryab^−/− mice and Cryab treated Cryab^−/− mice were assessed at 7 d after stroke. Splenocytes from PBS treated Cryab^−/− mice produced more pro-inflammatory IL-2, IL-17 and TNF when stimulated with anti-CD3/anti-CD28 than both PBS-treated wild-type mice and Cryab-treated Cryab^−/− mice splenocytes (FIG. 12e). When stimulated by concanavalin-A, splenocytes from PBS treated Cryab^−/− mice produced more pro-inflammatory IFN-γ, TNF, IL-12p40 and less anti-inflammatory IL-10 compared to the splenocytes from both PBS treated wild-type and Cryab treated Cryab^−/− mice (FIG. 12e). When stimulated with LPS, splenocytes from PBS treated Cryab^−/− mice produced more TNF and less IL-10 compared to the splenocytes from both PBS treated wild-type mice and Cryab treated Cryab^−/− mice (FIG. 12e).

Data set [7] concerns HSPB5−/− EAE mice. Particulars: WT and HSPB5 deficient mice; previously published data; cited from earlier work.

Entries after “also recorded” stand apart in the source; their conditions may differ.

On to αB-crystallin [HSPB5], for which the “EAE clinical scores over the course of the whole experiment (area under the curve)” value in data set [1] (10 μg sHSP protein IP every other day from peak of disease) is “significantly improved”. Besides, the “clinical paralysis / EAE clinical scores” value in data set [1] (10 μg sHSP protein IP every other day starting at the peak of disease) is “significantly ameliorated clinical paralysis; also recorded: therapeutic”. For the same substance, in data set [2] (brain), the “IL-17-PE molecules per CD3+, CD4+ and gd-T cells” value is given as “fewer”; the “number of IFN-g-PE molecules per CD3+ or CD4+ cells” value is “no differences”; the “percentages of IFN-g+ cells among CD3+ or CD4+ cells” value is “no differences”; the “percentages of IL-17+ cells among CD3+, CD4+ or gd-T cells” value is “no differences”. Moreover, the “total number of the brain CD3+, CD4+, CD8+ and gd-T cells” value in data set [2] is listed as “did not change”. The “lesion size at 7 d after stroke” value in data set [3] is “significantly decreased; also recorded: confers neuroprotection”. Also, the “clinical paralysis / clinical scores of mice with EAE” value in data set [4] (intraperitoneal 10-50 μg every other day starting at the peak of disease) is “significant reduction of clinical paralysis”. For the same substance, the “symptoms of EAE” value in data set [4] (intravenous administration) is given as “dramatic reduction of symptoms”. The “symptoms after cessation of the administration” value in data set [4] (mouse, in vivo) is reported as “returned soon after cessation”. Besides, in data set [5] (before, during or after cerebral ischemia), the “blood pressure, pulse rate, plasma glucose and lactate levels and arterial blood gas analysis” value was “no differences”. In addition, the “lesion size at 2 d after stroke (TTC staining)” value in data set [5] (wild-type mice, given 1 h before stroke onset and 12 hrs after) is on record as “not different”. For the same substance, the “lesion size at 7 d after stroke (silver stain)” value in data set [5] (wild-type mice, given 1 h before, 12 h, 24 h after and daily for seven days) is listed as “significantly reduced”. Further, the “lesion size at 7 d after stroke (silver stain)” value in data set [5] (wild-type mice, initial treatment 12 h after stroke onset, listed as Cryab) is recorded as “reduced stroke pathology; also recorded: conferred neuroprotection”. For the same substance, the “peripheral inflammatory response (splenocyte cytokines)” value in data set [6] was “modulates the peripheral inflammatory response”. In addition, the “treatment of EAE by full-length protein” value in data set [7] is on record as “able to treat not only WT mice, but also HSPB5 deficient mice”.
